Test results from patent US7553821B2, “Methods for selectively modulating survivin apoptosis pathways” (Yale University, priority 2000, dated 2009).

System: HeLa cells
Test: DNA content by propidium iodide staining and flow cytometry in transfected HeLa cells
Type: cell-based
Conditions: gated GFP-expressing cells, 48 h after transfection
Description: HeLa cells were transfected with GFP-survivin(T34A) in the presence or in the absence of 20 μM of the caspase inhibitor, Z-VAD-fmk. Gated GFP-expressing cells were analyzed 48 h after transfection for DNA content by propidium iodide staining and flow cytometry. The percentages of apoptotic cells with sub-G1 (hypodiploid) […] DNA content are indicated. Apoptotic HeLa cells in GFP-vector transfectants were 8%. Data are representative of one experiment out of at least three independent determinations.
Transfection experiments. For transient transfection, HeLa cells in C-6 tissue culture plates (Costar, Cambridge, Mass.) at ˜60-70% confluency, were incubated in 1 ml of serum-free OptiMEM medium (Life Technologies, Gaithersburg, Md.) for 20 min, and transfected with 2.5 μg of the various plasmid cDNAs plus 9 μl Lipofectamine (Life Technologies). After a 5 h incubation at 37° C., the mixture was aspirated and substituted with complete growth medium for 48-72 h. To generate stable YUSAC-2 transfectants, a survivin(T34A) cDNA was inserted into the HindIII-SpeI sites of the pTet-splice vector (Dr. D. Schatz, Yale University School of Medicine), downstream of the regulatory sequences of the Tet-resistance operon (TetO). […] Gated GFP-expressing cells were analyzed for DNA content by flow cytometry on a FACSort (Becton Dickinson, San Jose, Calif.) using a Cell Quest software. […]

Substance: survivin(T34A): dominant-negative, non-phosphorylatable survivin mutant with Thr34→Ala substitution, expressed from transfected cDNA (also HA- or GFP-tagged)
- hypodiploid (sub-G1) DNA content: resulted in the appearance of HeLa cells with hypodiploid (sub-G1) DNA content
